Results published in ChEMBL document CHEMBL5143626, “Marine Natural Products as Leads against SARS-CoV-2 Infection” (J Nat Prod, 2022).
Active and inactive are the calls of the source. The calls are words filed in the database; no cut-off is given here.

Experiments:
[1] = system: SARS-CoV-2; assay: Antiviral activity against SARS-CoV-2 isolate USA-WA1/2020 infected in Calu-3 cells at 10 uM preincubated for 24 hrs followed by viral infection and measured after 48 hrs by Hoechst 33342 staining based microscopic method; format: functional, organism-based; settings: Severe acute respiratory syndrome coronavirus 2, time 72.0 hrs
[2] = system: SARS-CoV-2; assay: Antiviral activity against SARS-CoV-2 isolate USA-WA1/2020 infected in Calu-3 cells preincubated for 24 hrs followed by viral infection and measured after 48 hrs by Hoechst 33342 staining based microscopic method; format: functional, organism-based; settings: Severe acute respiratory syndrome coronavirus 2, USA-WA1/2020, Calu-3
[3] = system: SARS-CoV-2; assay: Antiviral activity against SARS-CoV-2 isolate USA-WA1/2020 infected in Calu-3 cells at 1 uM preincubated for 24 hrs followed by viral infection and measured after 48 hrs by Hoechst 33342 staining based microscopic method; format: functional, organism-based; settings: Severe acute respiratory syndrome coronavirus 2, time 72.0 hrs
[4] = system: Calu-3; assay: (§1) Cytotoxicity against human Calu-3 cells assessed as reduction in cell viability; format: toxicity, cell-based; settings: calu-3
[5] = system: SARS-CoV-2; assay: Antiviral activity against SARS-CoV-2 isolate USA-WA1/2020 infected in human Primary bronchial epithelial cells assessed as reduction in viral RNA replication at 2.8 uM preincubated for 1 hr followed by viral infection and measured after 48 hrs by qRT-PCR method relative to control; format: functional, Severe acute respiratory syndrome coronavirus 2, Primary bronchial epithelial cell; design: scale not given: the % may be the effect or the level left; settings: time 49 hrs
[6] = system: SARS-CoV-2; assay: Antiviral activity against SARS-CoV-2 isolate USA-WA1/2020 infected in Calu-3 cells at 2.8 uM preincubated for 24 hrs followed by viral infection and measured after 48 hrs by Hoechst 33342 staining based microscopic method; format: functional, organism-based; settings: Severe acute respiratory syndrome coronavirus 2, time 72.0 hrs
[7] = system: SARS-CoV-2; assay: Antiviral activity against SARS-CoV-2 isolate USA-WA1/2020 infected in Calu-3 cells assessed at 0.5 uM preincubated for 24 hrs followed by viral infection and measured after 48 hrs by Hoechst 33342 staining based microscopic method relative to control; format: functional, organism-based; settings: Severe acute respiratory syndrome coronavirus 2, time 72.0 hrs
[8] = as §1; format: toxicity, cell-based; settings: Calu-3 cells

| SMILES | Activity [1] | EC50 [2] [µM] | Activity [3] | CC50 [4] [µM] | Activity [5] [%] | Activity [6] | Activity [7] | CC50 [8] [µM] |
| --- | --- | --- | --- | --- | --- | --- | --- | --- |
| C[C@H]1CC[C@H]2C(C)(C)CCC[C@]23Oc2ccc(O)cc2C[C@]13C [AUREOL] | Active | 4 | Active | > 10 | – | – | – | – |
| CC1=C2Cc3cc(ccc3O)C(=O)O[C@H](C(C)(C)Br)CC[C@](C)(O)[C@H](Br)CC[C@]2(C)[C@@H](Br)CC1 | Active | 6.9 | Active | > 10 | – | – | – | – |
| CC(C)=CCC[C@@H](C)[C@H]1CC[C@@]2(C(=O)O)C3=C(CC[C@]12C)[C@@]1(C)CC[C@H](O[C@@H]2OC[C@H](O)[C@H](O[C@@H]4OC[C@H](O)[C@H](O[C@@H]5O[C@H](CO)[C@H](O)[C@H](O)[C@H]5O)[C@H]4O)[C@H]2O[C@@H]2O[C@H](CO)[C@H](O)[C@H](O)[C@H]2O)C(C)(C)C1CC3 (stereo partly specified) | – | – | Active | – | – | – | – | – |
| CCC(CC)COC(=O)[C@H](C)N[P@](=O)(OC[C@H]1O[C@@](C#N)(c2ccc3c(N)ncnn23)[C@H](O)[C@@H]1O)Oc1ccccc1 [REMDESIVIR] | – | 0.3 | – | > 5 | – | – | – | – |
| CC(=O)C[C@]1(O)c2ccccc2-[n+]2ccc3c([nH]c4ccccc43)c21.O=C([O-])C(F)(F)F | – | 1.1 | – | – | >90 | Active | Active | 5 |
